Reference: publication PMC9500845, “New Anticancer Theobromine Derivative Targeting EGFR^WT and EGFR^T790M: Design, Semi-Synthesis, In Silico, and In Vitro Anticancer Studies” (Molecules, 2022)

Biological target: EGFR (Homo sapiens, UniProt P00533)
Experiment: in vitro EGFR enzyme inhibition, Human EGFR ELISA kit
Format: biochemical

EGFR, sequence (P00533 25-1210): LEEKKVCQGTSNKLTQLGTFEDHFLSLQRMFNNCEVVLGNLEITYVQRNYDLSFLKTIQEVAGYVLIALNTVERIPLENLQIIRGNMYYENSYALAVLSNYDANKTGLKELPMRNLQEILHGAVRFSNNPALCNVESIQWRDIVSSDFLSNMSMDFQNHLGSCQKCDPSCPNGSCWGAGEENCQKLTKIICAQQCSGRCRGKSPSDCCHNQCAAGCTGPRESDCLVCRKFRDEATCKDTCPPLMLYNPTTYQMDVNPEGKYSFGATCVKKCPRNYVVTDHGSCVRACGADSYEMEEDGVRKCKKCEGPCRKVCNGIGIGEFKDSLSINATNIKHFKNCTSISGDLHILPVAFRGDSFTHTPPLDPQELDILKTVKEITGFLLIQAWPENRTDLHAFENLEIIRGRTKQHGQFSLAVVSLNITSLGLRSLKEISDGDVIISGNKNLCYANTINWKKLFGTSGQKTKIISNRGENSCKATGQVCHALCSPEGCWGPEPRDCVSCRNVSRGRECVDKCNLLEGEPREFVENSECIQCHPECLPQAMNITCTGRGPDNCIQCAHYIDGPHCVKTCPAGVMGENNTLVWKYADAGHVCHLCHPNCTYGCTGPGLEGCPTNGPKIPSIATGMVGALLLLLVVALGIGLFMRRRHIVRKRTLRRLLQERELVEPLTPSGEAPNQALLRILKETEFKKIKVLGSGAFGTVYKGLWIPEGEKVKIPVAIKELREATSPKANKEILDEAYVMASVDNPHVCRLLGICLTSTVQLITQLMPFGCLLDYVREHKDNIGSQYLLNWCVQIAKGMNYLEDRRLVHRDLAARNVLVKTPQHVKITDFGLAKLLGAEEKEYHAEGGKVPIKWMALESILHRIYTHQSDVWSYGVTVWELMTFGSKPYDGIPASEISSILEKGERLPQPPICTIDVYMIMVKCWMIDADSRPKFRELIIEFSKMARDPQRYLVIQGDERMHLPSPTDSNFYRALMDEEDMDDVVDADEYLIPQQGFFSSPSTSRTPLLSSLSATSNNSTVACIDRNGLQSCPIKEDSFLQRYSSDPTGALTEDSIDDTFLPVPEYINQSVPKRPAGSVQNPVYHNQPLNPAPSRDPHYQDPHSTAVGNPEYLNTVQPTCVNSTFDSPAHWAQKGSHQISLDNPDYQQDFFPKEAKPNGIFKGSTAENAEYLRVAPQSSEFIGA

IC50: 17.2 nM
Structure (SMILES): Cn1cnc2c1c(=O)n(CC(=O)NCc1ccccc1)c(=O)n2C [XI, N-Benzyl-2-(3,7-dimethyl-2,6-dioxo-2,3,6,7-tetrahydro-1H-purin-1-yl)acetamide]
